Each block holds one compound with its values, some of them ahead of it. Residues, ends and D or L forms follow the SMILES beside them.
How the values were obtained:
[1] = Plasma stability of TA/SA γ-MSH peptides in reconstituted human plasma; type: in vitro ADME; conditions: 37°C
Method: For studies on the plasma stability of TA/SA γ-MSH, lyophilized citrated plasma from a pool of human donors was reconstituted in H2O as indicated by the manufacturer (# P9523, Sigma-Aldrich Chemie GmbH). Stability of human γ-MSH peptides was evaluated in fresh frozen human plasma (Interregional Blood Transfusion Swiss Red Cross Ltd, Epalinges, Swizerland). To this end, pooled samples of complete EDTA blood were centrifuged for 10 min at 1300 g, plasma was separated from buffy coat and erythrocytes and cleared by an additional 10 min centrifugation step at 1300 g. Cerebrospinal fluid pooled from ≥ 3 human donors was provided in liquid phase (# 991-19-P, Lee Biosolutions Inc., Maryland Heights, MO, USA). Aliquots of both body fluids were stored at -80°C until use. Samples of reconstituted plasma or CSF were thawed on ice, the pH of fresh frozen plasma was adjusted to 7.4 by addition of triethanolamine to a final concentration of 50 mM, and 45 μl aliquots were distributed to 1.5 ml Protein LoBind Tubes (Eppendorf AG, Hamburg, Germany). The γ-MSH synthetic peptides were pre-diluted in H2O to 20 μM, and 5 μl each were added on ice to 45 μl pre-laid samples of plasma or CSF. The γ-MSH starting concentration in degradation assays was thus 2 μM. Immediately after mixing, a first 5 μl aliquot for time point zero was removed, tubes were then transferred to a 37°C heat block, and further 5 μl aliquots were collected from plasma and CSF samples after various incubation times up to 68 h and 72.5 h, respectively. For control purposes, γ-MSH peptides were also diluted in H2O to a concentration of 2 μM and aliquots were removed after the corresponding incubation times at 37°C. All collected 5 μl aliquots were immediately diluted in 45 μl H2O and frozen on dry ice in 96 well V-bottom non-binding microplates (Greiner Bio-One Vacuette Schweiz GmbH, St. Gallen, Schweiz) to stop further degradation. After completion of degradation time courses, collection plates were stored at -80°C.
(§1) The residual TA/SA or human γ-MSH signaling activities were simultaneously analyzed on Glo-sensor and TA or human MC3R transfected HEK293T cells, respectively. […] Maximal luminescence values for the residual γ-MSH ligand activities were determined for all time points in the degradation time course, were baseline subtracted and normalized to the maximal luminescence value at time point zero for the same ligand in the same plate. All degradation time courses were performed in triplicate and read on three separate 96 well plates. […] Degradation curves were established by non-linear regression curve fit (least square fit) and half-lives determined from one phase decay curves. […]

[2] = Cerebrospinal fluid stability of γ-MSH peptides; type: in vitro ADME; conditions: pooled human CSF, 2 μM peptide, 37°C, up to 72 h, residual cAMP signaling on TA MC3R
Method: (§2) For studies on the plasma stability of TA/SA γ-MSH, lyophilized citrated plasma from a pool of human donors was reconstituted in H2O as indicated by the manufacturer (# P9523, Sigma-Aldrich Chemie GmbH). Stability of human γ-MSH peptides was evaluated in fresh frozen human plasma (Interregional Blood Transfusion Swiss Red Cross Ltd, Epalinges, Swizerland). To this end, pooled samples of complete EDTA blood were centrifuged for 10 min at 1300 g, plasma was separated from buffy coat and erythrocytes and cleared by an additional 10 min centrifugation step at 1300 g. Cerebrospinal fluid pooled from ≥ 3 human donors was provided in liquid phase (# 991-19-P, Lee Biosolutions Inc., Maryland Heights, MO, USA). […]
as §1

[3] = Cerebrospinal fluid pooled from ≥ 3 human donors; conditions: 37°C, up to 72.5 h
[4] = Plasma stability of human γ-MSH peptides in fresh frozen human plasma; type: in vitro ADME; conditions: 37°C, non-glycosylated synthetic peptides
Method: as §2, §1

[5] = supernatants of mock-transfected HEK293T cells (IRES GFP-plasmid only); conditions: human (HEK293T)
TA PC1/3 = assay: supernatants of HEK293T cells transfected with TA PCSK1 plasmid, 5 mM CaCl2, pH 5.5 (pH 4.1 to 8.1); conditions: human (HEK293T); Tyto alba alba enzyme
TA PC2 (with mouse 7B2) = assay: supernatants of HEK293T cells transfected with TA PCSK2 and mouse 7B2 plasmids, 5 mM CaCl2, pH 5.5 (pH 4.1 to 8.1); conditions: human (HEK293T); Tyto alba alba enzyme

Compound: CSCC[C@H](NC(=O)[C@@H](NC(=O)[C@@H](N)Cc1ccc(O)cc1)C(C)C)C(=O)N[C@@H](CO)C(=O)N[C@@H](Cc1c[nH]cn1)C(=O)N[C@@H](Cc1ccccc1)C(=O)N[C@@H](CCCNC(=N)N)C(=O)N[C@@H](Cc1c[nH]c2ccccc12)C(=O)N[C@@H](CC(N)=O)C(=O)N[C@@H](CCCCN)C(=O)N[C@@H](Cc1ccccc1)C(=O)NCC(N)=O [SA / TA γ2-MSH] (H-YVMSHFRWNKFG-NH2)
- plasma half-life ([1]; reconstituted pooled human plasma, 2 μM peptide, residual cAMP signaling on TA MC3R, one-phase decay, triplicate): 0.45 h
- half-life in human CSF [2]: > 7.5 h
- stability in human cerebrospinal fluid ([2]; triplicate): stable for several hours

Compound: YVMSHFRWNKFGRRNSSSSSSSSSSSSSGGH
- not cleaved [3]: completely stable in CSF (up to 72 h)

Compound: YVMSHFRWNKFGRRNSSSSSGGH
- not cleaved [3]: completely stable in CSF (up to 72 h)

Compound: Pyr-ERTKR-AMC (L-pyroglutamyl-(arginine-threonine-lysine-arginine)-7-amino-3-methylcoumarin)
- not cleaved [5]: no activity across the entire pH range
- cleaved bond (TA PC1/3): R-AMC
- cleaved bond (TA PC2 (with mouse 7B2)): R-AMC

Other lines, results leading:

- not cleaved [3]: completely stable in CSF (up to 72 h)
Compound: YVMSHFRWNKFGRRNSSSSSSSSSSSSSSSSSSGGH

- plasma half-life, fold longer than that of γ2-MSH ([1]; reconstituted human plasma): 70 fold
- plasma half-life, fold longer than that of γ3-MSH containing 5 serines ([1]; reconstituted human plasma): > 6 fold
- plasma half-life (t1/2) ([1]; reconstituted lyophilized citrated pooled human plasma, 2 μM peptide, up to 68 h, residual cAMP signaling on TA MC3R/Glo-sensor HEK293T (luminescence), one-phase decay, triplicate): > 30 h
Compound: CSCC[C@H](NC(=O)[C@@H](NC(=O)[C@@H](N)Cc1ccc(O)cc1)C(C)C)C(=O)N[C@@H](CO)C(=O)N[C@@H](Cc1c[nH]cn1)C(=O)N[C@@H](Cc1ccccc1)C(=O)N[C@@H](CCCNC(=N)N)C(=O)N[C@@H](Cc1c[nH]c2ccccc12)C(=O)N[C@@H](CC(N)=O)C(=O)N[C@@H](CCCCN)C(=O)N[C@@H](Cc1ccccc1)C(=O)NCC(=O)N[C@@H](CCCNC(=N)N)C(=O)N[C@@H](CCCNC(=N)N)C(=O)N[C@@H](CC(N)=O)C(=O)N[C@@H](CO)C(=O)N[C@@H](CO)C(=O)N[C@@H](CO)C(=O)N[C@@H](CO)C(=O)N[C@@H](CO)C(=O)N[C@@H](CO)C(=O)N[C@@H](CO)C(=O)N[C@@H](CO)C(=O)N[C@@H](CO)C(=O)N[C@@H](CO)C(=O)N[C@@H](CO)C(=O)N[C@@H](CO)C(=O)N[C@@H](CO)C(=O)NCC(=O)NCC(=O)N[C@@H](Cc1c[nH]cn1)C(=O)O [TA γ3-MSH 13 S] (H-YVMSHFRWNKFGRRNSSSSSSSSSSSSSGGH-OH)

- plasma stability, fold increased over human γ2-MSH [4]: > 100 fold
Compound: CSCC[C@H](NC(=O)[C@@H](NC(=O)[C@@H](N)Cc1ccc(O)cc1)C(C)C)C(=O)NCC(=O)N[C@@H](Cc1c[nH]cn1)C(=O)N[C@@H](Cc1ccccc1)C(=O)N[C@@H](CCCNC(=N)N)C(=O)N[C@@H](Cc1c[nH]c2ccccc12)C(=O)N[C@@H](CC(=O)O)C(=O)N[C@@H](CCCNC(=N)N)C(=O)N[C@@H](Cc1ccccc1)C(=O)NCC(=O)N[C@@H](CCCNC(=N)N)C(=O)N[C@@H](CCCNC(=N)N)C(=O)N[C@@H](CC(N)=O)C(=O)N[C@@H](CO)C(=O)N[C@@H](CO)C(=O)N[C@@H](CO)C(=O)N[C@@H](CO)C(=O)NCC(=O)N[C@@H](CO)C(=O)N[C@@H](CO)C(=O)NCC(=O)N[C@@H](C)C(=O)NCC(=O)N[C@@H](CCC(N)=O)C(=O)O [human γ3-MSH (wt)] (H-YVMGHFRWDRFGRRNSSSSGSSGAGQ-OH)

Source: paper PMC7199972 (PLoS ONE, 2020)
